# Patent US6352716B1, “Steroidal liposomes” (The Liposome Company Inc., priority 1984, dated 2002)
# Where two headings read alike, the source gives them in different places.
# What was measured:
# [1] = assay type: physicochemical; conditions: arsenazo III 4.5 mM, buffer pH 7.3, 50-54 mg salt in 1 ml, MLVs washed three times
# Experimental: (§1) The 2-amino-2-methyl-1,3-propanediol salt of cholesterol hemisuccinate (50 mg) was added to a 1 ml solution of arsenazo III (4.5 mM, final concentration) in 0.01 M 2-amino-2-methyl-1,3-propanediol-HCl (pH 7.3), 0.07 M KCl, 0.07 M NaCl. The suspension of CHS-MLVs was formed by mixing vortically with glass beads. The CHS-MLVs were pelleted by centrifugation at 10,000×g for 15 minutes, and the resulting pellet was washed three times as described in Section 6.1.1.
# as §1, with “2-aminoethanol” for “2-amino-2-methyl-1,3-propanediol”, “2-aminoethanol-HCl” for “2-amino-2-methyl-1,3-propanediol-HCl”, “vertically” for “vortically”
# The suspension of CHS-MLVs was formed by mixing vertically with glass beads. The CHS-MLVs were pelleted by centrifugation at 10,000×g for 15 minutes, and the resulting pellet was washed three times as described in Section 6.1.1.
# as §1, with “triethanolamine” for “2-amino-2-methyl-1,3-propanediol”, “triethanolamine-HCL” for “2-amino-2-methyl-1,3-propanediol-HCl”
# [2] = cited from earlier work
# [3] = Entrapment of 3H-diazepam in sonicated CHS-SUVs; conditions: Diazepam 5 mg/ml
# [4] = assay type: physicochemical
# Experimental: CHS-MLVs were prepared as described in Section 6.2 using 25 mg tris-salt CHS in 1.0 ml 0.01 M Tris-HCl (pH 7.4), 0.14 M NaCl buffer. The CHS-MLV preparation was sonicated to clarify to form sonicated CHS-SUVs and then either 5, 10, 15, 25, 30 or 166 mg BGH (Eli Lilly & Co., Indianapolis, Ind.) was added to separate aliquots of the sonicated CHS-SUV suspension. The suspensions were extensively mixed vortically, resulting in partitioning of the protein into the CHS-SUV bilayers. The sonicated CHS-SUV suspensions were visually observed for the presence of precipitate at 1, 2, and 21 days.
# CHS-MLVs were prepared as described in Section 6.2 using 25 mg tris-salt CHS in 1.0 ml 0.01 M Tris-HCl (pH 7.4), 0.14 M Nacl buffer. The CHS-MLV preparation was sonicated to clarity to form sonicated CHS-SUVs and up to 47 mg zinc-insulin powder (Boving Pancreatic Insulin, Sigma Chemical Co., St. Louis, Mo.) was added to the CHS-SUV suspension. The suspension was extensively mixed vortically, resulting in partitioning of the insulin into the CHS-SUV bilayers. The sonicatd CHS-SUVs were visually observed for the presence of precipitate at 1, 2, and 21 days. […] Insulin entrapment occurs more rapidly at 37° C.
# Small unilamellar vesicles were prepared as follows: 100 mg tylosin-base (Eli Lilly & Co., Indianapolis, Ind.) and 200 mg tris-salt CHS were mixed vertically in 4 ml phosphate buffered saline (pH 7.4). […]
# [5] = Retention of 125I-human growth hormone in the hind limb after intramuscular injection; set-up: species or system Swiss-Webster mice; conditions: mouse, in vivo
# Experimental: A group of 12 female Swiss-Webster mice were injected intramuscularly in the hind limb with 0.5 ml of the CHS-MLV entrapped ^125I-HGH suspension. A control group of 12 mice were injected with 0.5 ml free ^125I-HGH in .01 M Tris-HCl, 0.14 M NaCl buffer. Each animal in both groups received approximately 35,000 cpm/animal. At periodic intervals post-injection, the mice were sacrificed, the hind limb dissected, and percent total radioactivity remaining was determined. […] Thus, when injected intramuscularly, the CHS-liposome entrapped drug is released in a sustained fashion.
molecule,measurement,setting,value
"CC(C)CCC[C@@H](C)[C@H]1CC[C@H]2[C@@H]3CC=C4C[C@@H](OC(=O)CCC(=O)O)CC[C@]4(C)[C@H]3CC[C@]12C.CC(N)(CO)CO [2-amino-2-methyl-1,3-propanediol salt of cholesterol hemisuccinate]",entrapment of arsenazo III (colour of washed pellet),[1],red in color indicating entrapment of the arsenazo III
CC(C)CCC[C@@H](C)[C@H]1CC[C@H]2[C@@H]3CC=C4C[C@@H](OC(=O)CCC(=O)O)CC[C@]4(C)[C@H]3CC[C@]12C.NCCO [2-aminoethanol salt of cholesterol hemisuccinate],entrapment of arsenazo III (colour of washed pellet),[1],red in color indicating entrapment of the arsenazo III
COc1ccc2c(c1)c(CC(=O)O)c(C)n2C(=O)c1ccc(Cl)cc1 [Indomethacin],solubility in water,[2],practically insoluble in water
"CC(C)CCC[C@@H](C)[C@H]1CC[C@H]2[C@@H]3CC=C4C[C@@H](OC(=O)CCC(=O)O)CC[C@]4(C)[C@H]3CC[C@]12C.NC(CO)(CO)CO [Tris-salt CHS, tris(hydroxymethyl)aminomethane salt of cholesteryl hemisuccinate]",entrapment of arsenazo III (colour of washed pellet),[1],red in color indicating entrapment of the arsenazo III
same,% 3H-Diazepam Entrapped,[3]; CHS 100 mg/ml,100%
same,% 3H-Diazepam Entrapped,[3]; CHS 200 mg/ml,100%
"CC[C@H]1OC(=O)C[C@@H](O)[C@H](C)[C@@H](O[C@@H]2O[C@H](C)[C@@H](O[C@H]3C[C@@](C)(O)[C@@H](O)[C@H](C)O3)[C@H](N(C)C)[C@H]2O)[C@@H](CC=O)C[C@@H](C)C(=O)/C=C/C(C)=C/[C@@H]1CO[C@@H]1O[C@H](C)[C@@H](O)[C@@H](OC)[C@H]1OC [Tylosin, reference compound]",precipitate formation (visual comparison),[4]; 100 mg tylosin base in 4 ml: CHS-SUV supernatant versus suspension in water,A precipitate formed
same,solubility in water,[2]; 25° C.,5 mg/mL
CC(C)CCCC(C)C1CCC2C3CC=C4CC(OC(=O)CCC(=O)O)CCC4(C)C3CCC12C.OCCN(CCO)CCO (stereo not drawn) [triethanolamine salt of cholesterol hemisuccinate],entrapment of arsenazo III (colour of washed pellet),[1],red in color indicating entrapment of the arsenazo III
"Zinc-insulin: a polypeptide hormone; zinc-insulin powder, bovine pancreatic insulin from Sigma",solubility in aqueous phases,[2]; pH 4.5,practically insoluble
"^125I-HGH: free 125I-labelled human growth hormone in 0.01M Tris-HCl, 0.14M NaCl",% Radioactivity Remaining in Limb,[5]; 3 h,5%
same,% Radioactivity Remaining in Limb,[5]; 24 h,0.7%
same,% Radioactivity Remaining in Limb,[5]; 72 h,0.2%
same,% Radioactivity Remaining in Limb,[5]; 168 h,0.3%
"BGH: a simple protein composed of a single chain of approximately 191 amino acids (protein, UniProt P01246 27-217, looked up) Somatotropin: AFPAMSLSGLFANAVLRAQHLHQLAADTFKEFERTYIPEGQRYSIQNTQVAFCFSETIPAPTGKNEAQQKSDLELLRISLLLIQSWLGPLQFLSRVFTNSLVFGTSDRVYEKLKDLEEGILALMRELEDGTPRAGQILKQTYDKFDTNMRSDDALLKNYGLLSCFRKDLHKTETYLRVMKCRRFGEASCAF","presence of precipitate at 1, 2, and 21 days","[4]; 5-166 mg BGH added to sonicated CHS-SUVs (25 mg tris-salt CHS in 1.0 ml), room temperature",No precipitate was observed
